Measurements taken from PubChem BioAssay AID308 (DTP/NCI, 2004).
Several values for one entry are separate records, joined by “and”; a condition that tells them apart may be missing. Equal entries are not always repeated. Inconclusive results and toxic doses are left out.

Test system: BDF1 mice, L1210 6-MP/6-TG resistant leukemia ip, survival T/C
Assay: NCI In Vivo Anticancer Drug Screen. Data for tumor model L1210 Leukemia resistant to 6-MP and 6-Thioguanine; NSC 755, NSC 752 (intraperitoneal) in B6D2F1 (BDF1) mice
Conditions: endpoint: mean survival time, higher = longer survival
Procedure: The antitumor activity of compounds was measured in mice bearing transplantable tumors. Survival or tumor size were measured and the results are expressed as the measurement made in the treated group (T) divided by the measurement made in the vehicle treated control group (C). The tumor model used in this assay is L1210 Leukemia resistant to 6-MP and 6-Thioguanine; NSC 755, NSC 752 (intraperitoneal) in B6D2F1 (BDF1) mice

[1] = dose: 12.5 mg/kg/injection, schedule: Q01DX015 (ip), vehicle: carboxymethylcellulose (CMC)
[2] = dose: 25.0 mg/kg/injection, schedule: Q01DX015 (ip), vehicle: carboxymethylcellulose (CMC)
[3] = dose: 50.0 mg/kg/injection, schedule: Q01DX015 (ip), vehicle: carboxymethylcellulose (CMC)
[4] = dose: 30.0 mg/kg/injection, schedule: Q01DX015 (ip), vehicle: carboxymethylcellulose (CMC)

SMILES: O=C(Nc1ccc(C2=NCCN2)cc1)c1ccc(C(=O)Nc2ccc(C3=NCCN3)cc2)c(Cl)c1
- T/C (dose: 1.7 mg/kg/injection, schedule: Q01DX015 (ip), vehicle: carboxymethylcellulose (CMC)): 110 % of control
- T/C (dose: 2.6 mg/kg/injection, schedule: Q01DX015 (ip), vehicle: carboxymethylcellulose (CMC)): 107 % of control
- T/C (dose: 3.8 mg/kg/injection, schedule: Q01DX015 (ip), vehicle: carboxymethylcellulose (CMC)): 97 % of control
- T/C (dose: 4.4 mg/kg/injection, schedule: Q01DX015 (ip), vehicle: carboxymethylcellulose (CMC)): 121 % of control
- T/C (dose: 5.3 mg/kg/injection, schedule: Q01DX015 (ip), vehicle: carboxymethylcellulose (CMC)): 89 % of control
- T/C (dose: 6.5 mg/kg/injection, schedule: Q01DX015 (ip), vehicle: carboxymethylcellulose (CMC)): 253 % of control
- T/C (dose: 7.0 mg/kg/injection, schedule: Q01DX015 (ip), vehicle: carboxymethylcellulose (CMC)): 108 % of control
- T/C (dose: 8.0 mg/kg/injection, schedule: Q01DX015 (ip), vehicle: carboxymethylcellulose (CMC)): 122 % of control
- T/C (dose: 8.7 mg/kg/injection, schedule: Q01DX015 (ip), vehicle: carboxymethylcellulose (CMC)): 157 % of control
- T/C (dose: 12.0 mg/kg/injection, schedule: Q01DX015 (ip), vehicle: carboxymethylcellulose (CMC)): 90 % of control
- T/C (dose: 13.0 mg/kg/injection, schedule: Q02DX010 (ip), vehicle: carboxymethylcellulose (CMC)): 191 % of control
- T/C (dose: 15.0 mg/kg/injection, schedule: Q01DX010 (ip), vehicle: carboxymethylcellulose (CMC)): 170 % of control
- T/C (dose: 15.0 mg/kg/injection, schedule: Q01DX015 (ip), vehicle: carboxymethylcellulose (CMC)): 168 % of control
- T/C (dose: 18.0 mg/kg/injection, schedule: Q01DX015 (ip), vehicle: carboxymethylcellulose (CMC)): 108 % of control
- T/C (dose: 20.0 mg/kg/injection, schedule: Q01DX010 (ip), vehicle: carboxymethylcellulose (CMC)): 181 % of control
- T/C (dose: 20.0 mg/kg/injection, schedule: Q01DX015 (ip), vehicle: carboxymethylcellulose (CMC)): 166 % of control and 187 % of control
- T/C (dose: 22.5 mg/kg/injection, schedule: Q01DX015 (ip), vehicle: carboxymethylcellulose (CMC)): 154 % of control
- T/C (dose: 26.0 mg/kg/injection, schedule: Q01DX015 (ip), vehicle: carboxymethylcellulose (CMC)): 214 % of control
- T/C (dose: 27.0 mg/kg/injection, schedule: Q01DX015 (ip), vehicle: carboxymethylcellulose (CMC)): 90 % of control
- T/C (dose: 30.0 mg/kg/injection, schedule: Q02DX010 (ip), vehicle: carboxymethylcellulose (CMC)): 223 % of control
- T/C (dose: 45.0 mg/kg/injection, schedule: Q02DX010 (ip), vehicle: carboxymethylcellulose (CMC)): 188 % of control

SMILES: CC1CCOS(=O)O1 (stereo not drawn)
- T/C (dose: 12.5 mg/kg/injection, schedule: Q01DX Z (ip), vehicle: saline): 101 % of control
- T/C (dose: 25.0 mg/kg/injection, schedule: Q01DX Z (ip), vehicle: saline): 106 % of control
- T/C (dose: 37.5 mg/kg/injection, schedule: Q01DX Z (ip), vehicle: saline): 97 % of control
- T/C (dose: 75.0 mg/kg/injection, schedule: Q01DX Z (ip), vehicle: saline): 99 % of control
- T/C (dose: 100.0 mg/kg/injection, schedule: Q01DX Z (ip), vehicle: saline): 91 % of control

SMILES: CN(C)/N=N/c1nc[nH]c1C(N)=O
- T/C [1]: 104 % of control
- T/C [2]: 107 % of control
- T/C [3]: 112 % of control
- T/C (dose: 200.0 mg/kg/injection, schedule: Q01DX015 (ip), vehicle: carboxymethylcellulose (CMC)): 115 % of control

SMILES: CCOC(=O)Sc1ncnc2nc[nH]c12
- T/C (dose: 14.0 mg/kg/injection, schedule: Q01DX Z (ip), vehicle: saline): 95 % of control
- T/C (dose: 28.0 mg/kg/injection, schedule: Q01DX Z (ip), vehicle: saline): 95 % of control
- T/C (dose: 56.0 mg/kg/injection, schedule: Q01DX Z (ip), vehicle: saline): 90 % of control

SMILES: Nc1ccc(OC(=O)Oc2ccc(N)cc2)cc1
- T/C (dose: 62.0 mg/kg/injection, schedule: Q01DX Z (ip), vehicle: saline): 95 % of control
- T/C (dose: 125.0 mg/kg/injection, schedule: Q01DX Z (ip), vehicle: saline): 152 % of control
- T/C (dose: 250.0 mg/kg/injection, schedule: Q01DX Z (ip), vehicle: saline): 103 % of control

SMILES: CC(=O)Nc1ccc2nc3ccc(NC(C)=O)cc3[n+](-c3ccccc3)c2c1
- T/C (dose: 1.25 mg/kg/injection, schedule: Q01DX Z (ip), vehicle: carboxymethylcellulose (CMC)): 95 % of control
- T/C (dose: 2.5 mg/kg/injection, schedule: Q01DX Z (ip), vehicle: carboxymethylcellulose (CMC)): 103 % of control
- T/C (dose: 7.5 mg/kg/injection, schedule: Q01DX Z (ip), vehicle: carboxymethylcellulose (CMC)): 154 % of control
- T/C (dose: 25.0 mg/kg/injection, schedule: Q01DX Z (ip), vehicle: carboxymethylcellulose (CMC)): 202 % of control
- T/C (dose: 50.0 mg/kg/injection, schedule: Q01DX Z (ip), vehicle: carboxymethylcellulose (CMC)): 176 % of control
- T/C (dose: 75.0 mg/kg/injection, schedule: Q01DX Z (ip), vehicle: carboxymethylcellulose (CMC)): 180 % of control
- T/C (dose: 100.0 mg/kg/injection, schedule: Q01DX Z (ip), vehicle: carboxymethylcellulose (CMC)): 121 % of control
- T/C (dose: 200.0 mg/kg/injection, schedule: Q01DX Z (ip), vehicle: carboxymethylcellulose (CMC)): 150 % of control
- T/C (dose: 300.0 mg/kg/injection, schedule: Q01DX Z (ip), vehicle: carboxymethylcellulose (CMC)): 122 % of control

SMILES: S=c1nc[nH]c2c1ncn2C1CCCC1
- T/C (dose: 10.0 mg/kg/injection, schedule: Q01DX015 (ip), vehicle: carboxymethylcellulose (CMC)): 95 % of control
- T/C (dose: 10.0 mg/kg/injection, schedule: Q01DX015 (ip), vehicle: saline): 100 % of control
- T/C [4]: 98 % of control
- T/C [3]: 97 % of control
- T/C (dose: 50.0 mg/kg/injection, schedule: Q01DX015 (ip), vehicle: saline): 93 % of control

SMILES: Oc1cc(CN(CCCl)CCCl)c(O)cc1CN(CCCl)CCCl
- T/C (dose: 0.5 mg/kg/injection, schedule: Q01DX Z (ip), vehicle: saline): 173 % of control
- T/C (dose: 2.0 mg/kg/injection, schedule: Q01DX Z (ip), vehicle: carboxymethylcellulose (CMC)): 153 % of control and 184 % of control
- T/C (dose: 4.0 mg/kg/injection, schedule: Q01DX Z (ip), vehicle: carboxymethylcellulose (CMC)): 102 % of control and 108 % of control

SMILES: CNS(=O)(=O)c1ncnc2nc[nH]c12
- T/C (dose: 13.0 mg/kg/injection, schedule: Q01DX Z (ip), vehicle: carboxymethylcellulose (CMC)): 114 % of control
- T/C (dose: 32.0 mg/kg/injection, schedule: Q01DX Z (ip), vehicle: carboxymethylcellulose (CMC)): 114 % of control
- T/C (dose: 47.0 mg/kg/injection, schedule: Q01DX Z (ip), vehicle: carboxymethylcellulose (CMC)): 123 % of control
- T/C (dose: 58.0 mg/kg/injection, schedule: Q01DX Z (ip), vehicle: carboxymethylcellulose (CMC)): 108 % of control
- T/C (dose: 70.6 mg/kg/injection, schedule: Q01DX Z (ip), vehicle: carboxymethylcellulose (CMC)): 117 % of control
- T/C (dose: 107.0 mg/kg/injection, schedule: Q01DX Z (ip), vehicle: carboxymethylcellulose (CMC)): 113 % of control
- T/C (dose: 160.5 mg/kg/injection, schedule: Q01DX Z (ip), vehicle: carboxymethylcellulose (CMC)): 105 % of control

SMILES: O=C(O)c1cc[c]([Hg][S]c2ncnc3nc[nH]c23)cc1
- T/C [1]: 95 % of control
- T/C [2]: 87 % of control

SMILES: CSc1ncnc2nc[nH]c12
- T/C [4]: 89 % of control
- T/C (dose: 31.0 mg/kg/injection, schedule: Q01DX Z (ip), vehicle: carboxymethylcellulose (CMC)): 97 % of control
- T/C (dose: 45.0 mg/kg/injection, schedule: Q01DX015 (ip), vehicle: carboxymethylcellulose (CMC)): 103 % of control
- T/C (dose: 60.0 mg/kg/injection, schedule: Q01DX015 (ip), vehicle: carboxymethylcellulose (CMC)): 88 % of control
- T/C (dose: 62.5 mg/kg/injection, schedule: Q01DX Z (ip), vehicle: carboxymethylcellulose (CMC)): 92 % of control
- T/C (dose: 75.0 mg/kg/injection, schedule: Q01DX015 (ip), vehicle: carboxymethylcellulose (CMC)): 89 % of control
- T/C (dose: 90.0 mg/kg/injection, schedule: Q01DX015 (ip), vehicle: carboxymethylcellulose (CMC)): 86 % of control
- T/C (dose: 120.0 mg/kg/injection, schedule: Q01DX001 (ip), vehicle: carboxymethylcellulose (CMC)): 95 % of control and 104 % of control
- T/C (dose: 125.0 mg/kg/injection, schedule: Q01DX Z (ip), vehicle: carboxymethylcellulose (CMC)): 88 % of control
- T/C (dose: 180.0 mg/kg/injection, schedule: Q01DX001 (ip), vehicle: carboxymethylcellulose (CMC)): 92 % of control
- T/C (dose: 270.0 mg/kg/injection, schedule: Q01DX001 (ip), vehicle: carboxymethylcellulose (CMC)): 94 % of control
